Assay results reported in patent publication US9962333B2, “Timed release of substances to treat ocular disorders” (BOARD OF TRUSTEES OF NORTHERN ILLINOIS UNIVERSITY, priority 2013, dated 2018).
Values after ≈ are worked out from the molar mass of the structure shown.

Assay: physchem
Details: 37 °C, aqueous with cosolvent or surfactant or cyclodextrin, thermodynamic from solid
Experimental: (a) 50 mg of riboflavin was mixed with different concentrations of HP-β-CD (5, 10, 15, 20, 25, 30 mM)
(b) the mixture was stirred on rotary shaker for 72 hours at 37° C.
(c) after reaching equilibrium, samples were filtered through a 0.2 μm filter and suitably analyzed using UV-vis spectrophotometer.
(b) The mixture was stirred for 72 hrs. on a rotary shaker at 37° C.
(c) After reaching equilibrium, samples were filtered through 0.2 μm membrane filter & analyzed using a spectrophotometer.
(b) The solutions were left to equilibrate for 3 days on a shaker.
(c) After filtration, the solutions were analyzed by UV-vis spectroscopy.
The UV-vis absorption spectrum was obtained for each solution.
The data was used to plot a phase solubility curve for both the cyclodextrine.
50 mg of ofloxacin was added to each sample and then shaken for 72 hrs to attain equilibrium.

Cc1cc2nc3c(=O)[nH]c(=O)nc-3n(C[C@H](O)[C@H](O)[C@H](O)CO)c2cc1C [Riboflavin, riboflavin]
solubility at 72 h (Solubility for HPβ CD): 33 mg/mL (≈ 87.8 mM) | solubility at 72 h (Solubility for methyl β CD): 31.1 mg/mL (≈ 82.6 mM)
